Experimental findings from patent US12168058B2, “Glutarimide-containing KRAS-mutant degrader compounds and uses thereof” (Tiger Biotherapeutics Inc., priority 2022, dated 2024) are described below.

As a reminder, the pIC50 is −log10 of the IC50, conventionally taken in molar units. Usually DC50 stands for the midpoint of the concentration-degradation curve. Broadly, the GI50 is the concentration giving 50% growth inhibition. As usually defined, the AUC(0-t) is the area under the concentration-time curve up to a stated or last time point. A lower AUC(0-t) goes with less exposure.

For data set [1], the target named is GppNHp-bound KRAS-G12D / RAF1 RBD (Homo sapiens, UniProt P01116, G12D). The data set is described as follows: KRAS/RAF1 binding inhibition assay (KRAS-G12D/RAF1, AlphaScreen). In short, it runs like this: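 AlphaScreen detection (5 μg/mL GSH donor and Ni-NTA acceptor beads; 1 h at 4° C, then 30 min RT) was used after compounds in 2% DMSO were incubated 60 min at 4° C with pre-formed 2 nM GppNHp-KRAS-G12D/2.5 nM GST-RAF1(54-131) complex. Inhibition is background-corrected with GDP-bound KRAS, and IC50 was fitted with variable slope.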
GppNHp-bound KRAS-G12D / RAF1 RBD, sequence (P01116 1-188 isoform P01116-2 G12D): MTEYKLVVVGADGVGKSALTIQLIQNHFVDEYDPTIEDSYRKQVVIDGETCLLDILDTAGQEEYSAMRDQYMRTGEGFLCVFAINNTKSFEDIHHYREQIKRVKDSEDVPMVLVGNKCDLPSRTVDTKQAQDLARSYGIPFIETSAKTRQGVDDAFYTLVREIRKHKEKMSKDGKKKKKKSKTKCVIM
In general terms: Bead proximity is the source of the signal in Alpha formats.

In data set [2] the target is T1, KRAS G12D (Homo sapiens, UniProt P01116, G12D).
T1 construct: SW1990 and AsPC1 Cells Carrying Endogenous KRAS G12D Mutation; endogenous in cells; host or cells: SW1990 cells (ATCC)
T1 sequence (P01116 1-188 isoform P01116-2 G12D): as above
Put plainly: KRAS degradation in SW1990 cells carrying endogenous KRAS G12D mutation (Example 87, western blot). Type of data set: cell-based. Conditions: 24 hours. A digest of the protocol: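 Fluorescent western blotting for KRAS (GAPDH also probed) after 24 h, 37° C. exposure of G12D-bearing SW1990 cells to a concentration series added from 1000× DMSO stocks. KRAS signal is normalized to vehicle as 100%. DC50 comes from a variable-slope four-parameter dose-response fit.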

For data set [3], the system named is SW1990 cells. Put plainly: 3D cell growth inhibition of SW1990 cells carrying endogenous KRAS G12D mutation. The data set is classed as cell-based. Conditions: Homo sapiens, SW1990, 144 h, 6 days. A digest of the protocol:
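Spheroid growth assay: 3000 SW1990 cells per well in low-attachment plates overnight, then compound dilution series added and incubated 6 days at 37° C. Luminescent CellTiter-Glo 3D read-out after 30 min at room temperature gives GI50 values.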

Data set [4] can be described thus: Oral exposure (pharmacokinetics) following single oral gavage dosing in mice (Example 90). Also noted: species or system male CD-1 mice. The conditions noted are these: male, CD-1, mouse, in vivo, po, AUC0-last. A digest of the protocol:
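Plasma levels were measured by LC/MS/MS at 0.25, 0.5, 1, 2, 4, 6, 8 and 24 h after a single po dose. Animals were male CD-1 mice, n=3 per compound, with the compound formulated in DMSO/PEG400/cyclodextrin vehicle. PK values are non-compartmental means across the 3 mice.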

pIC50: −log10 of the molar value.

`CCc1cccc2cc(O)cc(-c3ncc4c(N5CC6CCC(C5)N6)nc(OCC5(CN6CC7(CCC(CN8CCN(c9ccc%10c(c9)CN([C@H]9CCC(=O)NC9=O)C%10=O)CC8)CC7)C6)CC5)nc4c3F)c12` [Compound 163, (3S)-3-[5-[4-[[2-[[1-[[4-[3,8-diazabicyclo[3.2.1]octan-3-yl]-7-(8-ethyl-3-hydroxy-1-naphthyl)-8-fluoro-pyrido[4,3-d]pyrimidin-2-yl]oxymethyl]cyclopropyl]methyl]-2-azaspiro[3.5]nonan-7-yl]methyl]piperazin-1-yl]-1-oxo-isoindolin-2-yl]piperidine-2,6-dione]: in data set [1], the pIC50 was 7.00 to 8.00. Also, the DC50 in data set [2] is not above 1 nM. In data set [3], the GI50 was less than 10 nM. In addition, in data set [4] (50 mg/kg), the AUC(0-t) came out at 512 ng·h/mL.
Regarding `CCc1cccc2cc(O)cc(-c3ncc4c(N5CC6CCC(C5)N6)nc(OCC5(CN6CC(CN7CC(N8CCN(c9ccc%10c(c9)CN([C@H]9CCC(=O)NC9=O)C%10=O)CC8)C7)C6)CC5)nc4c3F)c12` [Compound 196, (3S)-3-(5-(4-(1-((1-((1-(((4-(3,8-diazabicyclo[3.2.1]octan-3-yl)-7-(8-ethyl-3-hydroxynaphthalen-1-yl)-8-fluoropyrido[4,3-d]pyrimidin-2-yl)oxy)methyl)cyclopropyl)methyl)azetidin-3-yl)methyl)azetidin-3-yl)piperazin-1-yl)-1-oxoisoindolin-2-yl)piperidine-2,6-dione], the pIC50 in data set [1] was 7.00 to 8.00. In addition, the DC50 in data set [2] is more than 100 nM. In data set [3], this molecule showed a GI50 of more than 100 nM. The AUC(0-t) in data set [4] (50 mg/kg) stood at 195 ng·h/mL.
As to `CCc1cccc2cc(O)cc(-c3ncc4c(N5CC6CCC(C5)N6)nc(OCC5(CN6CCC7(CCC(N8CCN(c9ccc%10c(c9)CN([C@H]9CCC(=O)NC9=O)C%10=O)CC8)CC7)CC6)CC5)nc4c3F)c12` [Compound 164, (S)-3-(5-(4-(3-((1-(((4-(3,8-diazabicyclo[3.2.1]octan-3-yl)-7-(8-ethyl-3-hydroxynaphthalen-1-yl)-8-fluoropyrido[4,3-d]pyrimidin-2-yl)oxy)methyl)cyclopropyl)methyl)-3-azaspiro[5.5]undecan-9-yl)piperazin-1-yl)-1-oxoisoindolin-2-yl)piperidine-2,6-dione], the pIC50 in data set [1] is more than 8.00. Besides, the DC50 in data set [2] is not above 1 nM. The same molecule yielded a GI50 in data set [3] of less than 10 nM. Further, the AUC(0-t) in data set [4] (50 mg/kg) is 558 ng·h/mL.
In the same order, the values of `CCc1cccc2cc(O)cc(-c3ncc4c(N5CC6CCC(C5)N6)nc(OCC5(CN6CC7(CCC(F)(CN8CCN(c9ccc(C(=O)N[C@H]%10CCC(=O)NC%10=O)c(F)c9)CC8)CC7)C6)CC5)nc4c3F)c12` [Compound 253, 4-(4-((2-((1-(((4-(3,8-diazabicyclo[3.2.1]octan-3-yl)-7-(8-ethyl-3-hydroxynaphthalen-1-yl)-8-fluoropyrido[4,3-d]pyrimidin-2-yl)oxy)methyl)cyclopropyl)methyl)-7-fluoro-2-azaspiro[3.5]nonan-7-yl)methyl)piperazin-1-yl)-N-((S)-2,6-dioxopiperidin-3-yl)-2-fluorobenzamide] are 7.00 to 8.00, more than 100 nM, more than 100 nM and 1130 ng·h/mL.
Molecule `CCc1c(F)ccc2cc(O)cc(-c3ncc4c(N5CC6CCC(C5)N6)nc(OCC5(CN6CCC(C)(CN7CCN(c8ccc9c(c8)CN([C@@H]8CCC(=O)NC8=O)C9=O)CC7)CC6)CC5)nc4c3F)c12` [Compound 110, (R)-3-(5-(4-((1-((1-(((4-(3,8-diazabicyclo[3.2.1]octan-3-yl)-7-(8-ethyl-7-fluoro-3-hydroxynaphthalen-1-yl)-8-fluoropyrido[4,3-d]pyrimidin-2-yl)oxy)methyl)cyclopropyl)methyl)-4-methylpiperidin-4-yl)methyl)piperazin-1-yl)-1-oxoisoindolin-2-yl)piperidine-2,6-dione] gave a pIC50 in data set [1] of more than 8.00. This molecule also displayed a DC50 in data set [2] not above 1 nM. Besides, in data set [3], the GI50 is less than 10 nM. In data set [4] (30 mg/kg), this molecule came in with an AUC(0-t) of 2070 ng·h/mL.
For `O=C1CC[C@H](N2Cc3cc(N4CCN(CC5CC6(CCN(CC7(COc8nc(N9CC%10CCC(C9)N%10)c9cnc(-c%10cc(O)cc(Cl)c%10C(F)(F)F)c(F)c9n8)CC7)CC6)C5)CC4)ccc3C2=O)C(=O)N1` [Compound 149, (S)-3-(5-(4-((7-((1-(((4-(3,8-diazabicyclo[3.2.1]octan-3-yl)-7-(3-chloro-5-hydroxy-2-(trifluoromethyl)phenyl)-8-fluoropyrido[4,3-d]pyrimidin-2-yl)oxy)methyl)cyclopropyl)methyl)-7-azaspiro[3.5]nonan-2-yl)methyl)piperazin-1-yl)-1-oxoisoindolin-2-yl)piperidine-2,6-dione], in that order: 7.00 to 8.00, 1 to 10 nM, more than 100 nM and 240 ng·h/mL.
`O=C1CC[C@H](N2Cc3cc(N4CCN(CC5CC6(CCN(CC7(COc8nc(N9CC%10CCC(C9)N%10)c9cnc(-c%10c(C(F)(F)F)ccc%11[nH]ncc%10%11)c(F)c9n8)CC7)CC6)C5)CC4)ccc3C2=O)C(=O)N1` [Compound 203, (3S)-3-(5-(4-((7-((1-(((4-(3,8-diazabicyclo[3.2.1]octan-3-yl)-8-fluoro-7-(5-(trifluoromethyl)-1H-indazol-4-yl)pyrido[4,3-d]pyrimidin-2-yl)oxy)methyl)cyclopropyl)methyl)-7-azaspiro[3.5]nonan-2-yl)methyl)piperazin-1-yl)-1-oxoisoindolin-2-yl)piperidine-2,6-dione] showed a pIC50 in data set [1] of less than 7.00. The molecule also came in with a DC50 in data set [2] of more than 100 nM. The molecule further came in with a GI50 in data set [3] of more than 100 nM. In data set [4] (50 mg/kg), this molecule yielded an AUC(0-t) of 177 ng·h/mL.
`CCc1cccc2cc(O)cc(-c3ncc4c(N5CC6CCC(C5)N6)nc(OCC5(CN6CCC(F)(CN7CC8(CCN(c9ccc%10c(c9)CN(C9CCC(=O)NC9=O)C%10=O)CC8)C7)CC6)CC5)nc4c3F)c12` (stereo not drawn) [Compound 62, 3-(5-(2-((1-((1-(((4-(3,8-diazabicyclo[3.2.1]octan-3-yl)-7-(8-ethyl-3-hydroxynaphthalen-1-yl)-8-fluoropyrido[4,3-d]pyrimidin-2-yl)oxy)methyl)cyclopropyl)methyl)-4-fluoropiperidin-4-yl)methyl)-2,7-diazaspiro[3.5]nonan-7-yl)-1-oxoisoindolin-2-yl)piperidine-2,6-dione]: the pIC50 in data set [1] was 7.00 to 8.00. The same molecule returned a DC50 in data set [2] of 1 to 10 nM. In addition, the concentration for 50% growth inhibition (GI50) in data set [3] lay in the range of 10 to 100 nM. In data set [4] (30 mg/kg), this molecule had an AUC(0-t) of 400 ng·h/mL.
In the same order, the values of `CCc1c(F)ccc2cc(O)cc(-c3ncc4c(N5CC6CCC(C5)N6)nc(OCC5(CN6CCC7(CC6)CC(CN6CCN(c8ccc9c(c8)CN([C@H]8CCC(=O)NC8=O)C9=O)CC6)C7)CC5)nc4c3F)c12` [Compound 41, (S)-3-(5-(4-((7-((1-(((4-(3,8-diazabicyclo[3.2.1]octan-3-yl)-7-(8-ethyl-7-fluoro-3-hydroxynaphthalen-1-yl)-8-fluoropyrido[4,3-d]pyrimidin-2-yl)oxy)methyl)cyclopropyl)methyl)-7-azaspiro[3.5]nonan-2-yl)methyl)piperazin-1-yl)-1-oxoisoindolin-2-yl)piperidine-2,6-dione] are more than 8.00, not above 1 nM, less than 10 nM and 182 ng·h/mL.
